Measured values from US20190369111A1, “MOLECULAR KINETICS EVALUATION METHOD AND SCREENING METHOD” (Tokyo University of Science Foundation, priority 2016, published 2019).

Molecular target: T1, wild-type K-Ras protein (Homo sapiens, UniProt P01116)
T1 construct: expressed in transfected cells; host or cells: HeLa cells, transient transfection
Assay: Degradation (knockdown) of forcibly expressed wild-type K-Ras protein in HeLa cells, Western blot analysis
Type: cell-based
Experimental: A plasmid expressing the wild-type K-Ras protein (K-Ras-WT) was prepared, as in Reference Example 1.
As in Reference Example 1, the plasmid was introduced into HeLa cells to transiently overexpress the wild-type K-Ras protein (specifically, a fusion protein of the wild-type K-Ras protein and GFP through a HA tag) or a DsRed protein for comparison in the cells. HeLa cells into which the plasmid had been introduced were seeded in a 24-well plate at a cell density of 4×10^4 cells/well, and then cultured under conditions of 37° C. and 5 vol % CO2 for 40 hours.
Culture was performed for 40 hours after introduction of the plasmid, and then TUS-007 was added to HeLa cells as follows. As a medium, a serum-free medium (37° C.) in which 1 mass % L-glutamine solution (Sigma-Aldrich) was added to D-MEM (high D-glucose, phenol red, sodium pyruvate (Wako Pure Chemical Industries, Ltd.)) was used. […]
After electrophoresis, proteins were transferred to a PVDF membrane (Immobion™-P, Millipore) under conditions of 100 V and 120 minutes using a tank-type blotting device and a transfer buffer (25 mM Tris-HCl, 195 mM glycine, 0.01% SDS, 15% methanol). […] Subsequently, the membrane was treated with a chemiluminescence reagent Immobilon™ Western (Millipore), and then chemiluminescence was detected using a lumino image analyzer LAS-3000 (FUJIFILM Corporation). […]

T1 sequence (P01116 1-188 isoform P01116-2): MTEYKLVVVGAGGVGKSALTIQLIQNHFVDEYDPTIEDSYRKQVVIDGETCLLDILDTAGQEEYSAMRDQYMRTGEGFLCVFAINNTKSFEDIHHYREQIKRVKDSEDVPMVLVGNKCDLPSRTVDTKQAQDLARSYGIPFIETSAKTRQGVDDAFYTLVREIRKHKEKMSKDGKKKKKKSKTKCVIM

With `CC[C@@H](C)[C@H](NC(=O)CCCCCCNC(=O)[C@H](CC(C)C)NC(=O)CNC(=O)c1cc(Cl)ccc1Cl)C(=O)Nc1ccc2[nH]c(Cc3c[nH]c4ccccc34)nc2c1` [TUS-007] the “amount of wild-type K-Ras protein” value (24 hours after addition, relative to control (DMSO)) was “the amount of the wild-type K-Ras protein was reduced” and the “amount of wild-type K-Ras protein when MLN2238 is added together” value (both TUS-007 and MLN2238 added) was “the amount of the wild-type K-Ras protein was increased as compared with the amount of the control (DMSO)”.
